# According to article PMC13516501 (Pharmaceuticals, 2026):
# Assay: Single-dose, randomized, two-way crossover bioequivalence/pharmacokinetic studies A-D under fed conditions (plasma LC-MS/MS, NCA)
# Details: reference formulation, Study C, metformin 850 mg, empagliflozin […] mg, n 35
# Procedure: To ensure standardization, all subjects underwent at least 10 h of overnight pre-dose fasting on the study day. Participants then received a standardized high-fat, high-calorie breakfast (approximately 800 kcal). Dosing was administered 30 min after the start of this meal, followed by the intake of a 10% glucose solution (250 mL). The glucose solution was administered as a prophylactic measure to reduce the risk of hypoglycemia. It was not intended to simulate fed-state caloric intake beyond the standardized meal, in accordance with institutional clinical practice.
# Each study period included a one-day treatment followed by a 14-day washout period. […] All adverse events, including duration, severity, causality, and outcomes, were strictly monitored and recorded by the principal investigator and medical staff throughout the study.
# Promptly after collection, the samples were centrifuged at 3500 rpm for 10 min at 4 °C to separate the plasma. The harvested plasma was then transferred into appropriately labeled cryovials and immediately cryopreserved at −70 ± 15 °C until bioanalytical quantification. […]
# The primary pharmacokinetic parameters evaluated to establish bioequivalence were the maximum observed plasma concentration (Cmax) and the area under the concentration–time curve from time zero to the last measurable concentration (AUC0-t). […]
smiles,measurement,value
CN(C)C(=N)N=C(N)N [Metformin],AUC0-t (mean),"13,288.1 ng⋅h/mL"
